Measured values from patent US10111881B2 (priority 2016, dated 2018).

Columns and labels:
[1] = system: EBOV; experiment: organism not typed; assay type: cell-based, Zaire Ebolavirus (Mayinga strain); conditions: for IC50: read-out: IC-50 (EBOV)
[2] = system: MARV; experiment: microbe, parasite or virus in culture; assay type: cell-based, Marburgvirus (Musoke strain); conditions: for IC50: read-out: IC-50 (MARV)

| SMILES | Curve Class (EBOV) [1] | Curve class (MARV) [2] | IC50 [2] [µM] | IC50 [1] [µM] |
| --- | --- | --- | --- | --- |
| C=C1CC(C)OC(c2ccccc2OCC(O)CN2CCCCC2)C1 (centres unmarked) [MLS000042810] | 1.7 | 1.2 | 25.5 |  |
| O=C(NC1CCCCC1)c1ccc(S(=O)(=O)N2CCCCC2)cc1 [MLS000063146] | 4 | 1.2 | 25.4 |  |
| CCN1CCN(CCCNC(=O)c2cc3cc4ccc(OC)cc4nc3o2)CC1 [MLS000091920] | 4 | 1.2 | 5.4 |  |
| O=C1C2CCCN2C(c2cccs2)N1c1ccc(Cl)cc1 (centres unmarked) [MLS000092187] | 1.4 | 1.2 | 25.2 |  |
| Cc1cc(OCCCCCNCCO)cc(C)c1Cl [MLS000106706] | 1.5 | 1.2 | 25.2 | 0.595 |
| CC1(C)CC(NC(=O)N2c3ccccc3Sc3ccccc32)CC(C)(C)N1 [MLS000332573] | 1.3 | 1.2 | 12.8 | 6.02 |
| Cc1ccc(NC(=O)CN(C)C(=O)Cn2ncc(Cl)c(Cl)c2=O)cc1 [MLS000336293] | 4 |  | 24 |  |
| O=C(COC(=O)/C=C/c1cccs1)Nc1nc(-c2ccccc2)cs1 [MLS000391391] | 1.4 | 1.2 | 25.3 |  |
| CC(C)(C)c1cc(/C=N/O)cc(C(C)(C)C)c1O [MLS000391984] | 1.4 | 1.2 | 6.12 |  |
| S=C(Nc1ccc(Cl)cc1)NC1CCN(Cc2ccccc2)CC1 [MLS000418057] | 4 | 1.2 | 25.6 |  |
| CCN(CC)CCNC1=NCCn2c1cc1cc(OC)ccc12 [MLS000556387] | 1.6 | 1.2 | 25.5 | 2.93 |
| Cc1cc(C(=O)c2ccccc2)c(NC(=O)CCl)s1 [MLS000567464] | 1.6 | 1.2 | ~44.4 | 25.2 |
| Cc1ccc(NC(=O)ON=C2CCCC2)cc1 [MLS000569139] | 1.4 | 1.2 | 12.7 |  |
| CCOc1cccc(CNCCO)c1OCc1ccc(Cl)cc1Cl.Cl [MLS000580080] | 1.3 | 1.2 | 25.1 | 24.6 |
| COc1ccc(C(C(=O)NC2CCCCC2)N(C(=O)CCl)c2ccc(C)cc2)cc1 (centres unmarked) [MLS000583959] | 1.3 | 1.2 | 12.1 | 12.4 |
| C=CCNCCOCCOc1ccc(Cl)cc1C(C)(C)C [MLS000666802] | 1.5 |  | 25.2 | 0.616 |
| CCCN1CCN(CCCNC(=O)c2cc3c(=O)[nH]c4ccc(C)cc4c3s2)CC1 [MLS000673118] | 1.3 | 1.2 | 25.1 | 25 |

| SMILES | Curve Class (EBOV) [1] | Curve class (MARV) [2] | IC50 [2] [µM] | IC50 [1] [µM] |
| --- | --- | --- | --- | --- |
| CCOC(=O)c1c(C)n(CC(O)CN(C)C)c2cc(Br)c(OC)cc12.Cl (centres unmarked) [MLS000684231] | 1.3 | 1.2 | 4.88 | 6.48 |
| CCCCN(CCCC)CCNC(=O)CSCc1ccc(C)cc1.O=C(O)C(=O)O [MLS000689481] | 1.3 | 1.2 | 12.8 | 12 |
| CCOc1cc(CNCCc2c[nH]c3ccccc23)cc(Cl)c1OC.Cl [MLS000718690] |  | 1.2 | 25.3 | 2.77 |
| Oc1ccc(N2CCN(Cc3ccc(OCCCN4CCCCC4)cc3)CC2)cc1 [MLS000736237] | 4 | 1.2 | 14 |  |
| Oc1ccc(Nc2ccnc3cc(Cl)ccc23)cc1 [MLS000737975] | 4 |  | 25.2 |  |
| Cc1cc(C)c2nc(C)cc(Nc3ccc(C(=O)NCCO)cc3)c2c1 [MLS000768081] | 4 | 1.2 | 13.8 |  |
| CCN(CC)CCCNc1nc(CN2CCOCC2)nc2sc3c(c12)CCC3 [MLS000772389] | 1.6 | 1.2 | 24.8 | 3.51 |
| O=C1COc2ccc(C(=O)CCl)cc2N1 [MLS000780111] | 4 |  | ~38.8 |  |
| Fc1ccc(C(c2nnnn2Cc2cccs2)N2CCN(C3CCCCC3)CC2)cc1 (centres unmarked) [MLS000880330] | 1.6 | 1.2 | 25.8 | 6.38 |
| COc1ccc(NC(=O)C2C3C=CC4(O3)C2C(=O)N(CCN2CCCCC2)C4C(=O)NC2CCCC(C)C2C)cc1 (centres unmarked) [MLS000936259] | 1.3 | 1.2 | 25.3 | 12.5 |
| Cc1c(C(=O)NCCN(C)C)oc2ccc(S(=O)(=O)N3CCCC3)cc12 [MLS000936795] | 1.4 | 1.2 | 25.4 |  |
| Cc1cc(NC(=O)CCN2CCN(C/C=C/c3ccccc3)CC2)ccc1Br.Cl [MLS000999960] | 1.6 |  | 26.4 | 3.28 |
| CCN1CCCC1CNCC(O)COc1ccc(C(C)(C)C)cc1C.O=C(O)C(=O)O (centres unmarked) [MLS001018888] | 1.3 | 1.2 | 25.7 | 12.2 |
| Cc1cc(Nc2ccc(Cl)cc2)nc(N2CCOCC2)n1 [MLS001029946] | 1.6 | 1.2 | ~43.2 | 1.52 |
| COc1ccc2c(c1)c(CCN)c(C)n2Cc1ccccc1.Cl [MLS001030162] | 1.3 |  | 25.3 | 6.41 |
| COc1ccccc1C(=O)O/N=C(\N)c1ccccn1 [MLS001045935] | 1.4 | 1.2 | 27.9 |  |
